Here are results for 7 compounds from ChEMBL document CHEMBL1149582, “Synthesis of penaresidin derivatives and its biological activity” (Bioorg Med Chem, 2007).

One test concerns A549. Description: Cytotoxicity against human A549 cells. In kind it is functional, cell-based.
A further test concerns Staphylococcus aureus. Description: Antibacterial activity against Staphylococcus aureus 209P. In kind it is functional.
The test system of a further test is Candida albicans. Put plainly: Antibacterial activity against Candida albicans ATCC 90028. It is filed as functional.
A further test concerns Aspergillus niger. Put plainly: Antibacterial activity against Aspergillus niger IFM 5368. It is filed as functional.
Test [1] in a line: Cytotoxicity against human […] cells. It is filed as functional, cell-based.
A further test deals with L1210. Description: Cytotoxicity against mouse L1210 cells. In kind it is functional, cell-based.
For the next test, the system named is Micrococcus luteus. Description: Antibacterial activity against Micrococcus luteus IFM 2066. It is filed as functional.
A further test deals with Escherichia coli. Put plainly: Antibacterial activity against Escherichia coli ATCC 25922. It is filed as functional.
The next test has as its system Cryptococcus neoformans. Put plainly: Antibacterial activity against Cryptococcus neoformans IFM 46914. In kind it is functional.
The next test relates to Bacillus subtilis. Description: Antibacterial activity against Bacillus subtilis […]. It is filed as functional.
Another test concerns KB. Put plainly: Cytotoxicity against human KB cells. In kind it is functional, cell-based.

Values after ≈ are worked out from the molar mass of the structure shown.

Take `CCCCCCCCCCCCCC[C@@H]1N[C@H](CO)[C@@H]1O`: the IC50 is over 2 µg/mL in the test with A549, over 2 µg/mL in [1], 7.5 µg/mL (≈ 25 µM) in the test with L1210 and over 10 µg/mL in the test with KB. Also, the MIC in the test with Staphylococcus aureus, with Candida albicans, in the test with Aspergillus niger, with Micrococcus luteus, against Escherichia coli and in the test on Cryptococcus neoformans was over 16.7 µg/mL each time. The same compound registered an MIC in the test with Bacillus subtilis of over 16.7 µg/mL.
For `CCCCCCCCCCCCCC[C@@H]1N[C@@H](CO)[C@@H]1O`, the IC50 in the test on A549 stood at 0.34 µg/mL (≈ 1.14 µM); in test [1] it was 0.56 µg/mL (≈ 1.87 µM); with L1210 it was 4.5 µg/mL (≈ 15 µM); with KB, 3.4 µg/mL (≈ 11.4 µM). For the same compound, the MIC in the test with Staphylococcus aureus is 8.35 µg/mL (≈ 27.9 µM); with Candida albicans, over 16.7 µg/mL; in the test on Aspergillus niger, over 16.7 µg/mL; in the test with Micrococcus luteus it was 1.84 µg/mL (≈ 6.14 µM); with Escherichia coli, over 16.7 µg/mL; against Cryptococcus neoformans it was over 16.7 µg/mL. Moreover, 4.18 µg/mL (≈ 14 µM) was the least that counted as inhibitory with Bacillus subtilis (MIC).
As to `CCCCCCCCCCCCCC[C@@H]1N[C@H](CO)[C@H]1O`, the IC50 in the test with A549 is 1.97 µg/mL (≈ 6.58 µM); in test [1], 0.79 µg/mL (≈ 2.64 µM); in the test with L1210, 4.5 µg/mL (≈ 15 µM); with KB, over 10 µg/mL. Further, the MIC against Staphylococcus aureus was over 16.7 µg/mL; in the test with Candida albicans, over 16.7 µg/mL; against Aspergillus niger it was over 16.7 µg/mL; in the test with Micrococcus luteus it was 8.35 µg/mL (≈ 27.9 µM); against Escherichia coli, over 16.7 µg/mL; against Cryptococcus neoformans it was over 16.7 µg/mL. Further, in the test with Bacillus subtilis, the MIC worked out at 16.7 µg/mL (≈ 55.8 µM).
As to `CCCCCCCCCCCCCC[C@H]1N[C@@H](CO)[C@@H]1O`, the IC50 worked out at 0.22 µg/mL (≈ 0.735 µM) with A549, 0.17 µg/mL (≈ 0.568 µM) in test [1], 1.6 µg/mL (≈ 5.34 µM) in the test with L1210 and 3.2 µg/mL (≈ 10.7 µM) with KB. The MIC was 8.35 µg/mL (≈ 27.9 µM) against Staphylococcus aureus; over 16.7 µg/mL against Candida albicans; over 16.7 µg/mL in the test on Aspergillus niger; 4.18 µg/mL (≈ 14 µM) against Micrococcus luteus; 8.35 µg/mL (≈ 27.9 µM) in the test with Escherichia coli; over 16.7 µg/mL against Cryptococcus neoformans. The compound also came in with an MIC against Bacillus subtilis of 4.18 µg/mL (≈ 14 µM).
For `CCCCCCCCCCCCCC[C@H]1N[C@@H](CO)[C@H]1O`, the IC50 in the test with A549 is 1.38 µg/mL (≈ 4.61 µM); in test [1] it was 1.65 µg/mL (≈ 5.51 µM); in the test with L1210 it was over 10 µg/mL; in the test with KB it was over 10 µg/mL.
On to `CC(C)CC[C@H](O)CCCCCCCCC[C@@H]1N[C@@H](CO)[C@@H]1O`, for which the IC50 in the test on A549 was over 2 µg/mL; in test [1], over 2 µg/mL; in the test with L1210, 2.9 µg/mL (≈ 8.8 µM); with KB, over 10 µg/mL. Besides, the MIC in the test with Staphylococcus aureus, in the test with Candida albicans, in the test on Aspergillus niger, with Micrococcus luteus, with Escherichia coli and with Cryptococcus neoformans was over 16.7 µg/mL throughout. Also, the MIC in the test on Bacillus subtilis is over 16.7 µg/mL.
With `CCCCCCCCCCCCCC[C@H]1N[C@H](CO)[C@H]1O`, the IC50 with A549 is over 2 µg/mL; in test [1], 1.23 µg/mL (≈ 4.11 µM); with L1210, 4.5 µg/mL (≈ 15 µM); in the test with KB, 6 µg/mL (≈ 20 µM). The minimal inhibitory concentration (MIC) in the test on Staphylococcus aureus was 16.7 µg/mL (≈ 55.8 µM); in the test with Candida albicans, over 16.7 µg/mL; against Aspergillus niger it was over 16.7 µg/mL; against Micrococcus luteus, 4.18 µg/mL (≈ 14 µM); against Escherichia coli it was over 16.7 µg/mL; in the test on Cryptococcus neoformans, over 16.7 µg/mL. This compound showed an MIC with Bacillus subtilis of 8.35 µg/mL (≈ 27.9 µM).

In general, IC50 refers to the concentration needed to halve the response being measured. One may read the MIC as the least concentration at which growth counts as inhibited. A low value points to a more susceptible organism.
